Source: patent US8008325B2, “Plasma carboxypeptidase B inhibitors” (Bayer Schering Pharma AG, priority 2002, dated 2011)

Legend:
[1] = molecular target: T1, activated plasma carboxypeptidase B (Homo sapiens, UniProt Q96IY4); test: Assay for activated plasma carboxypeptidase B activity (hippuryl-Arg hydrolysis, colorimetric); format: biochemical; conditions: used as positive standard; hippuryl-Arg final 1 mM
T1 sequence (Q96IY4 115-423): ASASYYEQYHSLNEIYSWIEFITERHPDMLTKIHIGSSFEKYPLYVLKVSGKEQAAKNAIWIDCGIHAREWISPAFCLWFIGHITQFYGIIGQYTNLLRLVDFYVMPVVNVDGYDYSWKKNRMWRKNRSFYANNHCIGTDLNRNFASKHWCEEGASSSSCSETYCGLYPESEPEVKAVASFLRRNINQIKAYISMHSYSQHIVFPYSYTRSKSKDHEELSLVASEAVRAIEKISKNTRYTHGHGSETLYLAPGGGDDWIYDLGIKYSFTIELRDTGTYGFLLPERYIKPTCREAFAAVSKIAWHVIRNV
Description: The compounds of the invention were tested in an in vitro assay according to the method described in Hendriks et al., “Colorimetric assay for carboxypeptidase N in serum”, Clinica Chimica Acta (1986), Vol. 157, pp. 103-108 and Zhao et al., “Identification and characterization of two thrombin-activatable fibrinolysis inhibitor isoforms”, Thromb. Haemost. (1998), Vol. 80, pp. 949-955.
Activation of Plasma Carboxypeptidase B:
The following reagents were mixed together at a total volume of 200 μL:
The above mixture was incubated for 15 minutes at ambient temperature. The activation process was stopped by the addition of 2 μl of PPACK, D-Phe-Pro-Arg chloromethylketone (100 μM, final 1.0 μM). The mixture was then diluted 1:36 with the activation buffer containing 0.1% BSA. The resulting diluted mixture was kept on ice. […] The resulting sample mixture was incubated for 2 minutes at ambient temperature. To the sample mixture was added 12 μL of 5 mM hippuryl-Arg (final 1 mM (=Km)). The resulting sample mixture was incubated at ambient temperature for 30 minutes. At the end of the reaction, the product, hippuric acid, in the sample mixture was converted to a chromogen by adding the following to the mixture: • 80 μL of 0.2 M sodium phosphate buffer, pH 8.3 • 60 μL of 3% cyanuric chloride in dioxane (w/v). […] Optical density of the samples was measured at 382 nm.

[2] = molecular target: T2, plasma carboxypeptidase B (Homo sapiens, UniProt Q96IY4); conditions: t-PA-induced lysis; cited from earlier work
T2 sequence (Q96IY4 115-423): T1 sequence (Q96IY4 115-423)

For NC(N)=NCCSC(CC(=O)O)C(=O)O (centres unmarked) [GEMSA, guanidinoethyl-mercaptosuccinic acid], the IC50 [1] is listed as 35 µM and the “effect on the inhibitory effect of plasma carboxypeptidase B on clot lysis” value [2] is listed as “blocked the inhibitory effect of plasma carboxypeptidase B on clot lysis”.
